According to the NIST ThermoML archive (doi:10.1016/j.fluid.2006.05.032):

Experiment: xn = mol fraction of the nth substance listed
Details: Liquid, Vibrating tube method, x1 = 1

CCCO [propan-1-ol] + Cc1ccccc1
mass density [kg/m3]
Details | 323.15 K | 333.15 K | 343.15 K | 353.15 K
100 kPa | – | 770.5 | 761 | 752.2
5000 kPa | – | 775.4 | 766 | 757.6
10000 kPa | – | 780 | 770.7 | 762.7
15000 kPa | – | 784.3 | 775.3 | 767.6
20000 kPa | – | 788.4 | 779.6 | 772.1
25000 kPa | – | 792 | 783.7 | 776.3
30000 kPa | – | 795.7 | 787.6 | 780.4
35000 kPa | 806.6 | 799.2 | 791.2 | 784.1
40000 kPa | 809.9 | 802.6 | 794.7 | 787.7
45000 kPa | 813 | 805.9 | 798.3 | 791.8
50000 kPa | 816.1 | 809.1 | 801.6 | 795.1
55000 kPa | 819 | 812.3 | 804.6 | 798.5
60000 kPa | 821.8 | 815.2 | 807.7 | 801.7
65000 kPa | 824.6 | 818.1 | 810.6 | 805
